These results are taken from ChEMBL document CHEMBL5096235, “In Silico Exploration and Biological Evaluation of Bispecific Peptides Derived from Anti-HER2 Antibodies and Peptide-Camptothecin Conjugates for HER2-Positive Breast Cancer” (J Med Chem, 2022).

Residues, ends and D or L forms follow the SMILES beside them.

For data set [1], the target named is Receptor tyrosine-protein kinase erbB-2 (Homo sapiens, UniProt P04626). Kind of data set: Binding affinity to recombinant HER2 (unknown origin) assessed as dissociation constant by SPR analysis. On the technique in general: Surface plasmon resonance follows binding to a sensor surface in real time, without labels.
Sequence of Receptor tyrosine-protein kinase erbB-2 (P04626 whole entry): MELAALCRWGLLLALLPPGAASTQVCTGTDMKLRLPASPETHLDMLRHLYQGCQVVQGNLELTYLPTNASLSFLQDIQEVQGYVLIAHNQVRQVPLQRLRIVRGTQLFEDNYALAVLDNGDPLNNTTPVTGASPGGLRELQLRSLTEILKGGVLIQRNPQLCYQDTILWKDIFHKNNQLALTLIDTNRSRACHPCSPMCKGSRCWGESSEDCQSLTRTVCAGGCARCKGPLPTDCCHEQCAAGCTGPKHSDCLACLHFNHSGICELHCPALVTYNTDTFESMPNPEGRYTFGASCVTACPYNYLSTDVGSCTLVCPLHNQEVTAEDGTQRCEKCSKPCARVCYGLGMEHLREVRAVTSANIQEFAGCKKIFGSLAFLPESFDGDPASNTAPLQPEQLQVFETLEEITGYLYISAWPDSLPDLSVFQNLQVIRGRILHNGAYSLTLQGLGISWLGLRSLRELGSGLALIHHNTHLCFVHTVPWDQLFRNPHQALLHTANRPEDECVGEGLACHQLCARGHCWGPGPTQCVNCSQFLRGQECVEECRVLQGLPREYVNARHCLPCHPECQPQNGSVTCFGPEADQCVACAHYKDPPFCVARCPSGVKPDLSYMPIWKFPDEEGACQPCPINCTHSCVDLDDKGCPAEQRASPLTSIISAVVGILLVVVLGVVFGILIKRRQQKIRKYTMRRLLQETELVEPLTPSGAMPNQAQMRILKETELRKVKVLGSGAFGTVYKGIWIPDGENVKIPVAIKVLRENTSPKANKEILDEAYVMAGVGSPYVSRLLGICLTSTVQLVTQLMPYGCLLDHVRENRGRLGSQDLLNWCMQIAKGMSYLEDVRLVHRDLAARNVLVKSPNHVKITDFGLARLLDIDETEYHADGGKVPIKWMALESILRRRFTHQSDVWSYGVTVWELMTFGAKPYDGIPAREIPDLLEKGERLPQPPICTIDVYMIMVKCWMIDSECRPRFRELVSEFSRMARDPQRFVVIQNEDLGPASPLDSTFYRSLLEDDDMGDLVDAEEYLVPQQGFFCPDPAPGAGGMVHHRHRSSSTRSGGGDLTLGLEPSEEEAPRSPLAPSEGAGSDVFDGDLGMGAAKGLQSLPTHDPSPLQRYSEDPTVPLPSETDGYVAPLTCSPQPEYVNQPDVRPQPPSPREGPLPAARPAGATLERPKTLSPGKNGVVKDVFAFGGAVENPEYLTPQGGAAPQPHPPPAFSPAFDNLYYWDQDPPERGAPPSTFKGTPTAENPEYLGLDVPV
A short description of data set [2]: Metabolic stability in Sprague-Dawley rat plasma assessed as half life incubated for 120 mins by LC-MS/MS analysis. The data set is classed as ADME, cell-free.
Data set [3] is described as follows: Metabolic stability in Sprague-Dawley rat plasma assessed as drug degradation incubated for 120 mins by LC-MS/MS analysis. The data set is classed as ADME, cell-free. As to conditions: 2 h; call rule not given here.
The nature of data set [4]: Drug uptake in tumor of nude mouse xenografted with HER2-positive human SK-BR-3 cells assessed as increase in fluorescence intensity at 25 uM, iv measured after 2 hrs by IVIS spectrum in vivo imaging analysis. It counts as ADME, organism-based, Neoplasm. Background: In xenograft studies the graft and the host belong to different species.

The term Kd denotes the equilibrium constant for the complex coming apart. Usually half-life stands for how long it takes for the measured level to halve. As for `CC[C@H](C)[C@H](NC(=O)[C@H](CCCNC(=N)N)NC(=O)CNC(=O)[C@H](CS)NC(=O)CNC(=O)[C@H](CS)NC(=O)CNC(=O)[C@H](CCCCN)NC(=O)[C@H](Cc1ccccc1)NC(=O)[C@H](CCCNC(=N)N)NC(=O)[C@H](CCC(N)=O)NC(=O)[C@H](CC(N)=O)NC(=O)[C@H](Cc1ccc(O)cc1)NC(=O)[C@H](Cc1c[nH]c2ccccc12)NC(=O)[C@H](CO)NC(=O)[C@H](CCCNC(=N)N)NC(=O)CNC(=O)[C@H](Cc1c[nH]c2ccccc12)NC(=O)[C@H](CC(N)=O)NC(=O)[C@@H]1CCCN1C(=O)[C@@H](N)CC(N)=O)C(=O)N[C@@H](CCCCN)C(=O)N1CCC[C@H]1C(=O)N[C@@H](CCCNC(=N)N)C(=O)N[C@@H](CCCCN)C(=O)NCC(=O)N[C@@H](Cc1ccc(O)cc1)C(=O)N[C@H](C(=O)N[C@@H](CCCNC(=N)N)C(=O)O)[C@@H](C)O` (H-NPNWGRSWYNQRFKGCGCGRIKPRKGYTR-OH), the Kd in data set [1] was determined as 385 nM. For the same compound, the half-life in data set [2] came out at 15 min. Also, the Stability entry in data set [3] is “Unstable”.

In the case of `CC[C@H](C)[C@H](NC(=O)[C@H](CCCNC(=N)N)NC(=O)CNC(=O)[C@H](CS)NC(=O)CNC(=O)[C@H](CCCCN)NC(=O)[C@H](Cc1ccccc1)NC(=O)[C@H](CCCNC(=N)N)NC(=O)[C@H](CCC(N)=O)NC(=O)[C@H](CC(N)=O)NC(=O)[C@H](Cc1ccc(O)cc1)NC(=O)[C@H](Cc1c[nH]c2ccccc12)NC(=O)[C@H](CO)NC(=O)[C@H](CCCNC(=N)N)NC(=O)CNC(=O)[C@H](Cc1c[nH]c2ccccc12)NC(=O)[C@H](CC(N)=O)NC(=O)[C@@H]1CCCN1C(=O)[C@@H](N)CC(=O)NC(=S)Nc1ccc2c(c1)C(=O)OC21c2ccc(O)cc2Oc2cc(O)ccc21)C(=O)N[C@@H](CCCCN)C(=O)N1CCC[C@H]1C(=O)N[C@@H](CCCNC(=N)N)C(=O)N[C@@H](CCCCN)C(=O)NCC(=O)N[C@@H](Cc1ccc(O)cc1)C(=O)N[C@H](C(=O)N[C@@H](CCCNC(=N)N)C(N)=O)[C@@H](C)O`, the Drug uptake result in data set [4] is “Active”.

In the case of `CC[C@H](C)[C@H](NC(=O)[C@H](CCCNC(=N)N)NC(=O)CNC(=O)[C@H](CS)NC(=O)CNC(=O)[C@H](CCCCN)NC(=O)[C@H](Cc1ccccc1)NC(=O)[C@H](CCCNC(=N)N)NC(=O)[C@H](CCC(N)=O)NC(=O)[C@H](CC(N)=O)NC(=O)[C@H](Cc1ccc(O)cc1)NC(=O)[C@H](Cc1c[nH]c2ccccc12)NC(=O)[C@H](CO)NC(=O)[C@H](CCCNC(=N)N)NC(=O)CNC(=O)[C@H](Cc1c[nH]c2ccccc12)NC(=O)[C@H](CC(N)=O)NC(=O)[C@@H]1CCCN1C(=O)[C@@H](N)CC(N)=O)C(=O)N[C@@H](CCCCN)C(=O)N1CCC[C@H]1C(=O)N[C@@H](CCCNC(=N)N)C(=O)N[C@@H](CCCCN)C(=O)NCC(=O)N[C@@H](Cc1ccc(O)cc1)C(=O)N[C@H](C(=O)N[C@@H](CCCNC(=N)N)C(=O)O)[C@@H](C)O` (H-NPNWGRSWYNQRFKGCGRIKPRKGYTR-OH), the Kd in data set [1] amounted to 151 nM. Also, the half-life in data set [2] worked out at 15 min. In addition, in data set [3], the Stability result is on record as “Unstable”.
